Target: T1, tissue factor:factor VIIa complex (tissue factor on human bladder carcinoma J-82 cells) (Homo sapiens, UniProt P08709)
T1 construct: endogenous in cells; host or cells: J-82 (ATCC HTB-1) human bladder carcinoma cells: source of the tissue factor only
Test: Factor X activation chromogenic substrate assay (J-82 cells as source of tissue factor, Spectrozyme Xa)
Format: biochemical
Details: PPACK 1 μM; positive control; 30 min at room temperature, OD-405; read-out: Percent Inhibition of F.X Activation
Excerpt: The second screening was used to evaluate the ability of isolated antibodies to inhibit tissue factor catalyzed factor VII activity as reflected by the conversion of factor X to factor Xa. The human bladder carcinoma cell line J-82 (ATCC HTB-1) expresses cell surface-associated tissue factor and is used as the source of tissue factor and phospholipids. A chromogenic substrate for factor Xa is used, which develops color proportional to the amount of factor VIIa activity. Conversely, color is not developed if factor VII activity is blocked. The assay is performed as follows. J-82 cells are suspended in tris-buffered saline at a concentration of 1×10^5 cells per mL. Fifty microliters of cell suspension is added to individual wells of a 96-well polystyrene microliter plate. Fifty microliters of hybridoma culture supernatant diluted at least 1:10 is added to appropriate wells followed by 25 μL of 20 mM CaCl2. Negative control is irrelevant hybridoma culture supernatant (such as anti-tPA supernatant) and positive control is 1 μM PPACK (d-phenylalanine-proline-arginine-chloromethylkefone). Twenty-five microliters of 90 nM factor X and 50 λL of substrate Spectrozyme Xa are added to each well. Following thirty minute incubation at room temperature, OD-405 is determined. […]

T1 sequence (P08709 213-466 limits assumed): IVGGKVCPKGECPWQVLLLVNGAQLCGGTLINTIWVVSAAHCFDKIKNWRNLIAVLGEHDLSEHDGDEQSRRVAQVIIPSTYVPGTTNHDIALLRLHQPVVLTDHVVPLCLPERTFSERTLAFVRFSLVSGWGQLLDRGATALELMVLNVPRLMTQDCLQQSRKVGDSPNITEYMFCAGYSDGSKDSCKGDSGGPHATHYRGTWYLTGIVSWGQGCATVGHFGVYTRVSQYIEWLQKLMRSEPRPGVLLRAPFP
T1 sequence (P08709 61-212 limits assumed): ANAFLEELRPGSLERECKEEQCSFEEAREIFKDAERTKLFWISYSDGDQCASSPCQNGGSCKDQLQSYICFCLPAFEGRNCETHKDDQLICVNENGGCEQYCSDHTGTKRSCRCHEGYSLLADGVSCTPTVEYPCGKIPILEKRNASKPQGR
T1 sequence (P13726 33-295 partner): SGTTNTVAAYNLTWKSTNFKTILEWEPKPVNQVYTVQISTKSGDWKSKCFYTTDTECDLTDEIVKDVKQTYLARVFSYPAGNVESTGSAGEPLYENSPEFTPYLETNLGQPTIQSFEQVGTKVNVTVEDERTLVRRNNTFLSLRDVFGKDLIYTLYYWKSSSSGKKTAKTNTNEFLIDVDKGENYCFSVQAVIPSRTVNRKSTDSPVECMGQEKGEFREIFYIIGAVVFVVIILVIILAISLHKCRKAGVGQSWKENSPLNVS

`N=C(N)NCCC[C@H](NC(=O)[C@@H]1CCCN1C(=O)[C@H](N)Cc1ccccc1)C(=O)CCl` [PPACK, d-phenylalanine-proline-arginine-chloromethylkefone] gave an inhibition at 1 µM of 100%.

— patent publication US5506134A, “Hypridoma and monoclonal antibody which inhibits blood coagulation tissue factor/factor VIIa complex” (Corvas International, Inc., priority 1991, dated 1996)
